According to patent US20070270471A1, “Compounds Which Potentiate Glutamate Receptor and Uses Thereof in Medicine” (GLAXO GROUP LIMITED, priority 2004, published 2007):

Biological target: T1, human GluR2 flip (unedited) AMPA receptor subunit (Homo sapiens, UniProt P42262)
T1 construct: expressed in transfected cells; host or cells: HEK 293 cells, stably expressing or transiently transfected
Test: Calcium influx fluorescence assay (FLUO4, FLIPR)
Assay type: cell-based
Details: HEK 293 cells expressing human GluR2 flip (unedited); potentiation of response to 100 μM glutamate; peak fluorescence
Description: The ability of the compounds of the invention to potentiate glutamate receptor-mediated response were determined a) by using fluorescent calcium-indicator dyes such as FLUO4 and additionally for some compounds, b) by measuring glutamate-evoked current recorded from human GluR2 flip unedited HEK293 cells.
a) Calcium Influx Fluorescence Assay
384 well plates were prepared containing confluent monolayer of HEK 293 cells either stably expressing or transiently transfected with human GluR2 flip (unedited) AMPA receptor subunit. These cells form functional homotetrameric AMPA receptors. […]
The cell plate was then transferred into a fluorescence imaging plate based reader [such as the FLIPR384 (Molecular Devices)]. A baseline fluorescence reading was taken over a 10 to 240 second period, and then 10 μL from each plate containing a compound of the invention made up in standard buffer solution (in a concentration range from 100 μM to 10 μM) was added (to give a final concentration in the range 30 μM to 3 μM). The fluorescence was read over 5 minute period. […] The fluorescence was then read over a 4 minute period. The activities of the compounds of the invention and reference compounds were determined by measuring peak fluorescence after the last addition. The activity was also expressed relative to the fluorescence increase induced by cyclothiazide at their maximum response (i.e. greater than 30 μM).

T1 sequence (P42262 25-883 isoform P42262-2 limits assumed): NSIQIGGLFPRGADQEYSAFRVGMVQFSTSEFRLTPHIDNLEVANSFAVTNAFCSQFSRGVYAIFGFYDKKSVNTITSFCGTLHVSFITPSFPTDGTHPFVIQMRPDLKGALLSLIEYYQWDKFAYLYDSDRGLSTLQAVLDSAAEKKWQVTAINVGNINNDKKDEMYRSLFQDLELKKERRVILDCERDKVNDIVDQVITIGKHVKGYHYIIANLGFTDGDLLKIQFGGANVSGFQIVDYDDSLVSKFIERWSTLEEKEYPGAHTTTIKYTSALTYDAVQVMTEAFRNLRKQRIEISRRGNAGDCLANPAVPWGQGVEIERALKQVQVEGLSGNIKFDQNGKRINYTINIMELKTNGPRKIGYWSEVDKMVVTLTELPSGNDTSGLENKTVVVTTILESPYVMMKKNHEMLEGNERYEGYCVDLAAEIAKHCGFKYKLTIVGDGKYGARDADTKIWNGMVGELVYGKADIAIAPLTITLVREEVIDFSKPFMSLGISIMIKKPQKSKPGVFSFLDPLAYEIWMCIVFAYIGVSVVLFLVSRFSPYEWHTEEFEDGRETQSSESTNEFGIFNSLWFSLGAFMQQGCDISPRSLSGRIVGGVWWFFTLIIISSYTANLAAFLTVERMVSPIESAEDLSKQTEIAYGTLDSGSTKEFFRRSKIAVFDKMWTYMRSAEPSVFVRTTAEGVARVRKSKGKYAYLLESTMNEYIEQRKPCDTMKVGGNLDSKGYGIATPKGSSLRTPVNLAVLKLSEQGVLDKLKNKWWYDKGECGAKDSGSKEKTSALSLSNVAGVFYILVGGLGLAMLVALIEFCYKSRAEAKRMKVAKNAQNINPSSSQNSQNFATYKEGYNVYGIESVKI

EC50: 1.58 µM
SMILES: CC(C)S(=O)(=O)N[C@@H]1CN(C)C[C@H]1c1ccc(-c2cccc(N(C)S(C)(=O)=O)c2)cc1 (relative stereo) [Example 19, N-(trans-1-methyl-4-{3′-[methyl(methylsulfonyl)amino]-4-biphenylyl}-3-pyrrolidinyl)-2-propanesulfonamide]
